Experimental findings from a melting point compilation (Tetko et al.; mined from patent text by program, amines drawn as free bases though some values may be those of a salt) are described below.

As a reminder, the melting point is the temperature of the solid-liquid transition. The compound `CCCCCCC/C=C\CCCCCCCC(O)CCCNC(C)=O` (stereo unspecified) showed a melting point of 50 to 52 °C.

`COC(=O)c1ccc(CCC(=O)/C=C/c2ccc(O)c(OC)c2)o1` registered a melting point of 93 to 94 °C.

On to `O=C(O)CCCCCNC(=O)CCC(=O)Nc1cccc2ccccc12`, for which the melting point lay within 229 to 231 °C.

`COc1c(C)c2c(c(O)c1CC1=C(C)C(CC(=O)O)CC1)C(=O)OC2` (stereo unspecified) yielded a melting point of 153 to 159 °C.

As to `CC(C)(C)C(=O)c1c[nH]c2ncc(-c3ccccn3)nc12`, the melting point fell in the range of 276 to 278 °C.

Compound `Cc1nc(CC(O)Cn2cnc3c2c(=O)n(C)c(=O)n3C)no1` (stereo unspecified) gave a melting point of 148 to 150 °C.

Compound `CC(C)(C)OC(=O)N1CCc2c(cc(O)c(O)c2F)C(c2ccc(O)cc2)C1` (stereo unspecified) gave a melting point of 100 to 105 °C.

For `Nc1ccc(-c2ccc(=O)[nH]n2)cc1Br`, the melting point lay in the range of 266 to 267 °C.

Regarding `Cc1cc(C)c2c(c1C)OC(=O)C2c1ccc(Br)cc1` (stereo unspecified), the melting point was in the range of 168 to 169 °C.

For the compound `Cc1nc(C=NN(C)C)c2n1-c1ccc(Cl)cc1C(c1ccccc1Cl)=NC2`, the melting point was in the range of 238 to 242 °C.

As to `CC(C)CCC(=O)Nc1ccc2oc3c(c2c1)CCCC3`, the melting point came out at 146 °C.

`CC(=O)Nc1ccc2ncnc(Nc3cccc(Cl)c3)c2c1`: the melting point lay in the range of 260 to 262 °C.

As to `NC(=O)CC[C@H](Nc1ccc(O)cc1)C(=O)O`, the melting point was in the range of 211 to 212 °C.

Regarding `CCOc1ccccc1N(C[C@H]1CC[C@H](CN(C(=O)Nc2ccc(N(C)C)cc2)c2ccccc2OCC)CC1)C(=O)Nc1ccc(N(C)C)cc1`, the melting point is 153 to 155 °C.

Consider `CN(C)CC=Cc1ccc2c(c1)CCCN2C(=O)c1ccc(-c2ccc(Cl)cc2)cc1`, for which the melting point lay within 162 to 164 °C.

For the compound `O=C1N[C@H](Cc2ccc(CC(F)(F)C(F)(F)F)cc2)[C@H](c2cccc(Cl)c2)O1` (racemic), the melting point lay within 137 to 138 °C.

As for `COc1cc(C(=O)Nc2cc(-c3c(-c4ccc(F)c(C)c4)nc4cccnn34)ccn2)ccc1F`, the melting point is 217 to 218 °C.

`CCCc1c(C)[nH]c(C(=O)OCC)c1C` showed a melting point of 104 to 106 °C.

`CCOc1nn(-c2ccc(C(F)(F)F)cc2)cc1CCCOc1ccccc1CC(=O)O`: the melting point lay within 114 to 115 °C.

With `COc1cc(C(OC(C)=O)C(COC(C)=O)[N+](=O)[O-])ccc1OC(C)=O` (stereo unspecified), the melting point was 97 to 100 °C.

`CCN1CCCC1CNC(=O)c1c(C)[nH]c(C=O)c1C` (stereo unspecified) gave a melting point of 166 to 169 °C.

`CC(C)(C)c1cc(-c2csc(CN3CCOCC3)n2)cc(C(C)(C)C)c1O`: the melting point is 137 °C.

As for `CC(=O)ON1C(C)(C)CC(OC(=O)c2ccccc2)CC1(C)C`, the melting point was in the range of 110 to 112 °C.

As to `CCCCc1nn(-c2ccccc2C(F)(F)F)c(=O)[nH]1`, the melting point lay within 124 to 126 °C.

The compound `CNc1cc(Oc2nn(C)c(C(F)(F)F)c2Cl)ccc1C#N` displayed a melting point of 115 to 117 °C.

With `O=C(O)c1ccccc1CCCCc1ccccc1`, the melting point fell in the range of 82 to 84 °C.

In turn, `Cc1ccccc1C=C(C#N)C=O` returned a melting point of 81.5 °C.

In turn, `O=S(=O)(Cl)c1ccc2c(S(=O)(=O)Cl)cc(S(=O)(=O)Cl)cc2c1` showed a melting point of 195 to 197 °C.

`O=c1c2c([nH]n1-c1c(F)cc(Cl)c3nc(Cl)sc13)CCCC2` showed a melting point of 191 to 197 °C.

Compound `COc1ccc2c(c1)CCC1CCNC(=O)C(CC(=O)NC(C)C)=C21` (stereo unspecified) had a melting point of 213 to 216 °C.

In turn, `Cc1cc(C)n(-c2nc(Nc3cccc(C(F)(F)F)c3)c3ccccc3n2)n1` showed a melting point of 233 to 240 °C.

In the case of `COc1ccc(C(=O)Nc2c(Cl)cncc2Cl)cc1OC1COCC1OC` (stereo unspecified), the melting point lay in the range of 175 to 177 °C.

On to `COc1cccc(OC)c1C(=O)P(=O)(CC(C)C)C(=O)c1c(C)cc(C)cc1C` (stereo unspecified), for which the melting point is 105 to 106 °C.

Take `C=CCn1c(SCCF)n[nH]c1=O`: the melting point was 65 °C.

`CSC[C@H]1C[C@H](C(=O)O)CS1` (relative stereo): the melting point fell in the range of 74.8 to 76 °C.

The compound `Cc1nnc(-c2ccc3occ(-c4ccc(C(=O)N5CCCC5)c(F)c4)c3c2)o1` had a melting point of 195 to 196 °C.

On to `CNCC(C(=O)O)c1ccc(O)cc1` (stereo unspecified), for which the melting point lay in the range of 218 to 221 °C.

As for `O=[N+]([O-])C=C1NCCCN1Cc1ccc(Cl)cc1`, the melting point lay within 172 to 174 °C.

The compound `Cc1cc(C(=O)CCc2cc(-c3ccc(C(F)(F)F)cc3)nn2C(C)C)ccc1OCC(=O)O` showed a melting point of 160 to 163 °C.

For `CCOc1nc(C(F)(F)C(F)(F)F)cc(=O)n1-c1cc(O)c(Cl)cc1F`, the melting point fell in the range of 117 to 120 °C.

Consider `CC(C)Nc1nc(N)c(C(=O)NC(N)=S)nc1Cl`, for which the melting point is 195 °C.

Compound `Cc1cc(SCc2cc(-c3ccc(C(F)(F)F)cc3)on2)c(Cl)cc1OCC(=O)O` registered a melting point of 120 to 121 °C.

`CC(F)(F)c1ccc(Oc2ccc(C3CCCN4CCS(=O)(=O)N=C34)cc2)cc1` (stereo unspecified) displayed a melting point of 171 to 172 °C.

For the compound `O=c1cc(SCc2ccc(O)cc2)oc2cc(O)cc(O)c12`, the melting point fell in the range of 222 to 225 °C.

In turn, `O=C1c2ccc(CCCCc3ccccc3)cc2CCN1O` gave a melting point of 82 to 83 °C.

`CCCCc1[nH]c2ccc(OC)cc2c1C(=O)c1ccc(OC)cc1` returned a melting point of 170 °C.

On to `O=C(CCc1cccnc1)c1ccccc1`, for which the melting point was in the range of 86 to 87 °C.

Turning to `Cc1nc(N)c2nc(C)n(CCOCC#Cc3ccccc3)c2c1C`, the melting point was 187 to 188 °C.

`Cc1ccc(OCC2CN=C(N)O2)c(C)c1` (stereo unspecified) gave a melting point of 116 °C.

In turn, `COc1cc(OC)nc(NC(=O)NS(=O)(=O)c2nccn2-c2nn(C)cc2Cl)n1` showed a melting point of 164 to 165 °C.

Regarding `Cc1cc(Cl)cc(OC2=NS(=O)(=O)CS2)c1`, the melting point stood at 151 °C.

With `Cn1ncnc1COc1nn2c(-c3cnccn3)nncc2c1-c1ccccc1F`, the melting point was in the range of 179 to 180 °C.

`CCCCCC(C)C(C)c1cc(O)c2c3c(c(=O)oc2c1)SCCC3` (stereo unspecified) yielded a melting point of 131 to 133 °C.

Take `Cc1cccc(-c2n[nH]cc2-c2ccc(F)c(-c3ncc(C(C)(C)O)cn3)c2)n1`: the melting point came to 162 °C.

`Cc1ccc(Sc2cc(C(C)(C)C)c(O)c(C(=O)O)c2C)cc1` had a melting point of 163 to 164 °C.

Regarding `CN(C)C=Nc1sc(C=Nc2ccccc2)c(Cl)c1C#N`, the melting point is 174 °C.

As to `O=C(O)CC/C=C/CC(NC(=O)c1ccccc1)C(=O)O` (stereo unspecified), the melting point amounted to 138 °C.

The compound `CN(Cc1cccc(-c2ccc(CC3SC(=O)NC3=O)cc2)c1)C(=O)c1cc(Cl)cc(Cl)c1` (stereo unspecified) displayed a melting point of 106 °C.

In turn, `CCc1ccc2oc(C(=O)Nc3ccc(-c4ccc(S(=O)(=O)NC(C(=O)O)C(C)C)cc4)cc3)c(C)c2c1OC` (stereo unspecified) had a melting point of 225 to 228 °C.

Regarding `CC=NOCc1nc2c(N)nc(C)c(C)c2n1CCCCNC(=O)c1ccccc1`, the melting point lay within 192 to 194 °C.

In turn, `CC(C)(C)[Si](C)(C)O[C@H]1CCNC1=O` yielded a melting point of 48 to 49 °C.

In the case of `CC(C)(C)c1nc(C=C2SC(=S)N(N)C2=O)nc(C(C)(C)C)c1O`, the melting point fell in the range of 194 to 196 °C.

As for `CC(=O)OC1CC2CCC3C4CC(N5CCCCC5)C(=O)C4(C)CCC3C2(C)CC1N1CCCCC1` (stereo unspecified), the melting point was 154 °C.

`CCCOC1C=CC(=O)N1S(=O)(=O)c1ccccc1` (stereo unspecified) registered a melting point of 56 to 58 °C.

Take `CCC(=O)c1ccc(C#C[Si](C)(C)C)cc1`: the melting point lay in the range of 36 to 37 °C.

With `Cc1nc2c(N)nc3ccc(OCc4ccccc4)cc3c2n1CCCCNC(=O)c1ccccc1`, the melting point fell in the range of 244 to 245 °C.

`Cc1cnc(CCl)n2c1c(CCCl)c1ccccc12` returned a melting point of 160 to 161 °C.

Consider `Cc1ccc(Cc2cnc(NCCCNc3ccc(Cl)cn3)[nH]c2=O)cn1`, for which the melting point lay in the range of 173 to 175 °C.

Take `Cc1nc2cc(NC(=O)NC34CC5CC(CC(C5)C3)C4)ccc2s1`: the melting point fell in the range of 209 to 214 °C.

In the case of `COC(=O)c1cc2cc(OC)c(OCCCl)cc2[nH]1`, the melting point lay within 164 to 166 °C.

The compound `Brc1ccccc1C=Cc1ccco1` displayed a melting point of 108 to 110 °C.

As for `CNC(=O)CC(SC(=O)c1ccccc1)C(CC(C)C)C(=O)NC(Cc1ccc(OC)cc1)C(=O)NC` (stereo unspecified), the melting point fell in the range of 140 to 144 °C.

Consider `Cc1nnc(OC(=O)NC(C)(C)C)n1-c1ccc(Cl)cn1`, for which the melting point fell in the range of 132 to 134 °C.

Compound `CC(C)(C)OC(=O)Nc1ccc(-c2ccccc2F)cc1N` had a melting point of 100 to 103 °C.

`COCOc1ccc([N+](=O)[O-])c(C=O)c1` yielded a melting point of 68 to 69 °C.

As to `COc1cccc(Nc2cc(Nc3ccc(F)c(Cl)c3)ncn2)c1`, the melting point lay within 214 to 216 °C.

Take `O=C(c1ccc(-c2ccsc2)cc1Cl)c1cccc2c1Nc1ncccc1CN2`: the melting point lay within 125 to 130 °C.

Take `Cc1cccc(C)c1NC(=O)CSc1cc(C(C)(C)C)c(O)c(C(C)(C)C)c1`: the melting point is 138 °C.

As to `CC(=O)OCC1CC(n2c(Br)nc3cc(Cl)c(Cl)cc32)C(OC(C)=O)C1OC(C)=O` (stereo unspecified), the melting point lay within 156 to 159 °C.

Compound `Fc1cccc(F)c1Cn1c(-c2c(F)cccc2F)nc2c(CCl)cccc21` gave a melting point of 143 to 144 °C.

`NS(=O)(=O)Oc1cc(C(F)(F)F)cc(C(F)(F)F)c1` gave a melting point of 118 to 120 °C.

Take `O=c1cc(CO)oc(CO)c1O`: the melting point was in the range of 160 to 161 °C.

Compound `CCOC1=NS(=O)(=O)N=C1N[C@@H]1c2cc(OC(F)(F)F)ccc2OC(C)(C)[C@H]1O` came in with a melting point of 192 to 194 °C.

As to `CC1CCc2nc(=O)c(-c3ccccc3)cn21` (stereo unspecified), the melting point amounted to 178 °C.

Compound `COc1cc(Nc2nccc(-c3nc(C)c(C)s3)n2)cc(OC)c1OC` came in with a melting point of 207 °C.

On to `COc1ccc(O)c(C2C(=O)N(Cc3ccc(C(F)(F)F)o3)c3cccc(Cl)c32)n1` (stereo unspecified), for which the melting point is 151 to 152 °C.

Turning to `O=C1CC(c2ccccc2)Nc2ccccc2N1Cc1ccccc1` (stereo unspecified), the melting point was 132 to 133 °C.

Compound `COc1cc(F)c(C)cc1C#N` registered a melting point of 99 to 101 °C.

As to `NC(=O)CCC(O)c1ccccc1` (stereo unspecified), the melting point was in the range of 74 to 75 °C.

`CCOC(=O)c1ncn2c1CN(C)C(=O)c1cc([N+](=O)[O-])ccc1-2`: the melting point is 197 to 199 °C.

The compound `CCCCOC(Cc1ccc(OCCN2c3ccccc3Oc3ccccc32)cc1)C(=O)O` (stereo unspecified) returned a melting point of 84 to 88 °C.
